According to patent publication US9738634B2, “Heterocyclic amide compound and herbicide” (SYNGENTA PARTICIPATIONS AG, priority 2013, dated 2017):

How the values were obtained:
Assay type in all cases: in vivo
barnyard grass [1] = test: Test Example 1: weedkilling efficacy, preemergent weed treatment in the submerged state; A: barnyard grass; details: treatment dosage 252 g/ha
Procedure, shortened: (§1)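 Pre-emergence application onto floodwater (4 cm, alluvial soil) on the day of sowing, dose expressed as g/ha from diluted emulsion formulation. Weeds sown with 2.5-leaf transplanted rice as crop; plants held at 25–30 °C in greenhouse and scored against assessment criteria after 3 weeks.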

directly sown rice [2] = test: Test Example 3: soil treatment, effect on crop; b: directly sown rice; details: treatment dosage 315 g/ha
Procedure, shortened: (§2)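 Crop and weed responses were judged three weeks after a uniform surface spray of the water-diluted emulsion at the given g/ha rate. Seeds sat beneath about 1.5 cm of sterilized diluvial soil, and boxes stood in a greenhouse at 25 to 30° C.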

directly sown rice [3] = test: Test Example 4: foliar treatment, effect on crop; b: directly sown rice; details: treatment dosage 315 g/ha
Procedure, shortened: (§3)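 Seeds are spot-sown into sterilized diluvial soil and covered with about 1.5 cm of soil. After 14 days' greenhouse growth at 25 to 30° C, plants are sprayed on stems and leaves with diluted emulsion at the stated g/ha rate, then scored at 3 weeks.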

beet [4] = test: Test Example 3: soil treatment, effect on crop; f: beet; details: treatment dosage 315 g/ha
Procedure, shortened: as §2

corn [5] = test: Test Example 4: foliar treatment, effect on crop; c: corn; details: treatment dosage 315 g/ha
Procedure, shortened: as §3

oval-leafed pondweed [6] = test: Test Example 2: weedkilling efficacy, growth period weed treatment in the submerged state; C: oval-leafed pondweed; details: treatment dosage 252 g/ha
Procedure, shortened: (§4)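 Weeds treated at the 1-2 leaf stage by application of diluted emulsion onto floodwater (4 cm depth, alluvial soil) at specified g/ha. Grown in greenhouse at 25 to 30° C; herbicidal effect rated three weeks after treatment.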

corn [7] = test: Test Example 3: soil treatment, effect on crop; c: corn; details: treatment dosage 315 g/ha
Procedure, shortened: as §2

soybean [8] = test: Test Example 3: soil treatment, effect on crop; d: soybean; details: treatment dosage 315 g/ha
Procedure, shortened: as §2

catchweed [9] = test: Test Example 3: weedkilling efficacy through soil treatment; O: catchweed; details: treatment dosage 315 g/ha
Procedure, shortened: as §2

redroot pigweed [10] = test: Test Example 4: weedkilling efficacy by foliar treatment; L: redroot pigweed; details: treatment dosage 315 g/ha
Procedure, shortened: as §3

crabgrass [11] = test: Test Example 3: weedkilling efficacy through soil treatment; D: crabgrass; details: treatment dosage 315 g/ha
Procedure, shortened: as §2

black-grass [12] = test: Test Example 3: weedkilling efficacy through soil treatment; H: black-grass; details: treatment dosage 315 g/ha
Procedure, shortened: as §2

chickweed [13] = test: Test Example 3: weedkilling efficacy through soil treatment; N: chickweed; details: treatment dosage 315 g/ha
Procedure, shortened: as §2

soybean [14] = test: Test Example 4: foliar treatment, effect on crop; d: soybean; details: treatment dosage 315 g/ha
Procedure, shortened: as §3

fig-leafed goosefoot [15] = test: Test Example 4: weedkilling efficacy by foliar treatment; M: fig-leafed goosefoot; details: treatment dosage 315 g/ha
Procedure, shortened: as §3

black-grass [16] = test: Test Example 4: weedkilling efficacy by foliar treatment; H: black-grass; details: treatment dosage 315 g/ha
Procedure, shortened: as §3

bulrush [17] = test: Test Example 2: weedkilling efficacy, growth period weed treatment in the submerged state; B: bulrush; details: treatment dosage 252 g/ha
Procedure, shortened: as §4

transplanted rice = test: Test Example 1: preemergent weed treatment in the submerged state, effect on crop; a: transplanted rice; details: treatment dosage 252 g/ha
Procedure, shortened: as §1

birds-eye speedwell [18] = test: Test Example 3: weedkilling efficacy through soil treatment; p: birds-eye speedwell; details: treatment dosage 315 g/ha
Procedure, shortened: as §2

Italian ryegrass [19] = test: Test Example 4: weedkilling efficacy by foliar treatment; I: Italian ryegrass; details: treatment dosage 315 g/ha
Procedure, shortened: as §3

catchweed [20] = test: Test Example 4: weedkilling efficacy by foliar treatment; O: catchweed; details: treatment dosage 315 g/ha
Procedure, shortened: as §3

wheat [21] = test: Test Example 4: foliar treatment, effect on crop; e: wheat; details: treatment dosage 315 g/ha
Procedure, shortened: as §3

green foxtail [22] = test: Test Example 3: weedkilling efficacy through soil treatment; E: green foxtail; details: treatment dosage 315 g/ha
Procedure, shortened: as §2

Italian ryegrass [23] = test: Test Example 3: weedkilling efficacy through soil treatment; I: Italian ryegrass; details: treatment dosage 315 g/ha
Procedure, shortened: as §2

chickweed [24] = test: Test Example 4: weedkilling efficacy by foliar treatment; N: chickweed; details: treatment dosage 315 g/ha
Procedure, shortened: as §3

beet [25] = test: Test Example 4: foliar treatment, effect on crop; f: beet; details: treatment dosage 315 g/ha
Procedure, shortened: as §3

redroot pigweed [26] = test: Test Example 3: weedkilling efficacy through soil treatment; L: redroot pigweed; details: treatment dosage 315 g/ha
Procedure, shortened: as §2

wheat [27] = test: Test Example 3: soil treatment, effect on crop; e: wheat; details: treatment dosage 315 g/ha
Procedure, shortened: as §2

crabgrass [28] = test: Test Example 4: weedkilling efficacy by foliar treatment; D: crabgrass; details: treatment dosage 315 g/ha
Procedure, shortened: as §3

fig-leafed goosefoot [29] = test: Test Example 3: weedkilling efficacy through soil treatment; M: fig-leafed goosefoot; details: treatment dosage 315 g/ha
Procedure, shortened: as §2

bulrush [30] = test: Test Example 1: weedkilling efficacy, preemergent weed treatment in the submerged state; B: bulrush; details: treatment dosage 252 g/ha
Procedure, shortened: as §1

Indian mallow [31] = test: Test Example 4: weedkilling efficacy by foliar treatment; K: Indian mallow; details: treatment dosage 315 g/ha
Procedure, shortened: as §3

barnyard grass [32] = test: Test Example 2: weedkilling efficacy, growth period weed treatment in the submerged state; A: barnyard grass; details: treatment dosage 252 g/ha
Procedure, shortened: as §4

green foxtail [33] = test: Test Example 4: weedkilling efficacy by foliar treatment; E: green foxtail; details: treatment dosage 315 g/ha
Procedure, shortened: as §3

birds-eye speedwell [34] = test: Test Example 4: weedkilling efficacy by foliar treatment; p: birds-eye speedwell; details: treatment dosage 315 g/ha
Procedure, shortened: as §3

Indian mallow [35] = test: Test Example 3: weedkilling efficacy through soil treatment; K: Indian mallow; details: treatment dosage 315 g/ha
Procedure, shortened: as §2

oval-leafed pondweed [36] = test: Test Example 1: weedkilling efficacy, preemergent weed treatment in the submerged state; C: oval-leafed pondweed; details: treatment dosage 252 g/ha
Procedure, shortened: as §1

Row | Compound | A (barnyard grass) weedkilling efficacy grade (barnyard grass [1]) | b (directly sown rice) effect on crop grade (directly sown rice [2]) | b (directly sown rice) effect on crop grade (directly sown rice [3]) | f (beet) effect on crop grade (beet [4]) | c (corn) effect on crop grade (corn [5]) | C (oval-leafed pondweed) weedkilling efficacy grade (oval-leafed pondweed [6]) | c (corn) effect on crop grade (corn [7]) | d (soybean) effect on crop grade (soybean [8]) | O (catchweed) weedkilling efficacy grade (catchweed [9]) | L (redroot pigweed) weedkilling efficacy grade (redroot pigweed [10]) | D (crabgrass) weedkilling efficacy grade (crabgrass [11]) | H (black-grass) weedkilling efficacy grade (black-grass [12]) | N (chickweed) weedkilling efficacy grade (chickweed [13]) | d (soybean) effect on crop grade (soybean [14]) | M (fig-leafed goosefoot) weedkilling efficacy grade (fig-leafed goosefoot [15]) | H (black-grass) weedkilling efficacy grade (black-grass [16]) | B (bulrush) weedkilling efficacy grade (bulrush [17]) | a (transplanted rice) effect on crop grade (transplanted rice) | P (birds-eye speedwell) weedkilling efficacy grade (birds-eye speedwell [18]) | I (Italian ryegrass) weedkilling efficacy grade (Italian ryegrass [19]) | also measured
1 | CSc1nsc(NC(=O)C(C)(C)N2COC(C)=C(c3ccccc3)C2=O)n1 [B-1-16] | 5 (weed kill ratio 90% or more, (practically complete withering)) | 3 (weed kill ratio 40% or more, less than 70%) | 4 (weed kill ratio 70% or more, less than 90%) | 0 (weed kill ratio 5% or less (practically no effect)) | 2 (weed kill ratio 20% or more, less than 40%) | 5 (weed kill ratio 90% or more, (practically complete withering)) | 0 (weed kill ratio 5% or less (practically no effect)) | 0 (weed kill ratio 5% or less (practically no effect)) | 5 (weed kill ratio 90% or more, (practically complete withering)) | 4 (weed kill ratio 70% or more, less than 90%) | 5 (weed kill ratio 90% or more, (practically complete withering)) | 5 (weed kill ratio 90% or more, (practically complete withering)) | 3 (weed kill ratio 40% or more, less than 70%) | 3 (weed kill ratio 40% or more, less than 70%) | 3 (weed kill ratio 40% or more, less than 70%) | 5 (weed kill ratio 90% or more, (practically complete withering)) | 5 (weed kill ratio 90% or more, (practically complete withering)) | 2 (weed kill ratio 20% or more, less than 40%) | 4 (weed kill ratio 70% or more, less than 90%) | 3 (weed kill ratio 40% or more, less than 70%) | O (catchweed) weedkilling efficacy grade (catchweed [20]): 4 (weed kill ratio 70% or more, less than 90%); e (wheat) effect on crop grade (wheat [21]): 1 (weed kill ratio 5% or more, less than 20%); E (green foxtail) weedkilling efficacy grade (green foxtail [22]): 5 (weed kill ratio 90% or more, (practically complete withering)); I (Italian ryegrass) weedkilling efficacy grade (Italian ryegrass [23]): 4 (weed kill ratio 70% or more, less than 90%); N (chickweed) weedkilling efficacy grade (chickweed [24]): 0 (weed kill ratio 5% or less (practically no effect)); f (beet) effect on crop grade (beet [25]): 1 (weed kill ratio 5% or more, less than 20%); L (redroot pigweed) weedkilling efficacy grade (redroot pigweed [26]): 4 (weed kill ratio 70% or more, less than 90%); e (wheat) effect on crop grade (wheat [27]): 5 (weed kill ratio 90% or more, (practically complete withering)); D (crabgrass) weedkilling efficacy grade (crabgrass [28]): 5 (weed kill ratio 90% or more, (practically complete withering)); M (fig-leafed goosefoot) weedkilling efficacy grade (fig-leafed goosefoot [29]): 4 (weed kill ratio 70% or more, less than 90%); B (bulrush) weedkilling efficacy grade (bulrush [30]): 5 (weed kill ratio 90% or more, (practically complete withering)); K (Indian mallow) weedkilling efficacy grade (Indian mallow [31]): 5 (weed kill ratio 90% or more, (practically complete withering)); A (barnyard grass) weedkilling efficacy grade (barnyard grass [32]): 5 (weed kill ratio 90% or more, (practically complete withering)); E (green foxtail) weedkilling efficacy grade (green foxtail [33]): 5 (weed kill ratio 90% or more, (practically complete withering)); P (birds-eye speedwell) weedkilling efficacy grade (birds-eye speedwell [34]): 0 (weed kill ratio 5% or less (practically no effect)); K (Indian mallow) weedkilling efficacy grade (Indian mallow [35]): 0 (weed kill ratio 5% or less (practically no effect)); C (oval-leafed pondweed) weedkilling efficacy grade (oval-leafed pondweed [36]): 5 (weed kill ratio 90% or more, (practically complete withering))
2 | CC1=C(c2ccccc2)C(=O)N(C(C)(C)C(=O)Nc2nc(-c3ccccc3)ns2)CO1 [B-1-17] | 5 (weed kill ratio 90% or more, (practically complete withering)) | 0 (weed kill ratio 5% or less (practically no effect)) | 4 (weed kill ratio 70% or more, less than 90%) | 0 (weed kill ratio 5% or less (practically no effect)) | 5 (weed kill ratio 90% or more, (practically complete withering)) | 4 (weed kill ratio 70% or more, less than 90%) | 0 (weed kill ratio 5% or less (practically no effect)) | 0 (weed kill ratio 5% or less (practically no effect)) | 5 (weed kill ratio 90% or more, (practically complete withering)) | 5 (weed kill ratio 90% or more, (practically complete withering)) | 5 (weed kill ratio 90% or more, (practically complete withering)) | 5 (weed kill ratio 90% or more, (practically complete withering)) | 3 (weed kill ratio 40% or more, less than 70%) | 0 (weed kill ratio 5% or less (practically no effect)) | 4 (weed kill ratio 70% or more, less than 90%) | 5 (weed kill ratio 90% or more, (practically complete withering)) | 5 (weed kill ratio 90% or more, (practically complete withering)) | 0 (weed kill ratio 5% or less (practically no effect)) | 5 (weed kill ratio 90% or more, (practically complete withering)) | 1 (weed kill ratio 5% or more, less than 20%) | O (catchweed) weedkilling efficacy grade (catchweed [20]): 4 (weed kill ratio 70% or more, less than 90%); e (wheat) effect on crop grade (wheat [21]): 0 (weed kill ratio 5% or less (practically no effect)); E (green foxtail) weedkilling efficacy grade (green foxtail [22]): 5 (weed kill ratio 90% or more, (practically complete withering)); I (Italian ryegrass) weedkilling efficacy grade (Italian ryegrass [23]): 5 (weed kill ratio 90% or more, (practically complete withering)); N (chickweed) weedkilling efficacy grade (chickweed [24]): 3 (weed kill ratio 40% or more, less than 70%); f (beet) effect on crop grade (beet [25]): 0 (weed kill ratio 5% or less (practically no effect)); L (redroot pigweed) weedkilling efficacy grade (redroot pigweed [26]): 4 (weed kill ratio 70% or more, less than 90%); e (wheat) effect on crop grade (wheat [27]): 3 (weed kill ratio 40% or more, less than 70%); D (crabgrass) weedkilling efficacy grade (crabgrass [28]): 5 (weed kill ratio 90% or more, (practically complete withering)); M (fig-leafed goosefoot) weedkilling efficacy grade (fig-leafed goosefoot [29]): 5 (weed kill ratio 90% or more, (practically complete withering)); B (bulrush) weedkilling efficacy grade (bulrush [30]): 5 (weed kill ratio 90% or more, (practically complete withering)); K (Indian mallow) weedkilling efficacy grade (Indian mallow [31]): 5 (weed kill ratio 90% or more, (practically complete withering)); A (barnyard grass) weedkilling efficacy grade (barnyard grass [32]): 5 (weed kill ratio 90% or more, (practically complete withering)); E (green foxtail) weedkilling efficacy grade (green foxtail [33]): 5 (weed kill ratio 90% or more, (practically complete withering)); P (birds-eye speedwell) weedkilling efficacy grade (birds-eye speedwell [34]): 3 (weed kill ratio 40% or more, less than 70%); K (Indian mallow) weedkilling efficacy grade (Indian mallow [35]): 0 (weed kill ratio 5% or less (practically no effect)); C (oval-leafed pondweed) weedkilling efficacy grade (oval-leafed pondweed [36]): 5 (weed kill ratio 90% or more, (practically complete withering))
